How the values were obtained:
[1] = target: Cyclin A2-CDK2 kinase enzyme (Homo sapiens, UniProt P20248+P24941); assay: ADP-Glo Kinase Assay, screening at 0, 1 and 10 μM; assay type: biochemical; conditions: for kinase activity reduced to: remaining CDK2 kinase activity
[2] = target: cyclin A2-CDK2 complex (Homo sapiens, UniProt P20248+P24941); assay: dose response in the in vitro biochemical kinase assay; conditions: 0 nM to 100 μM, room temperature

Row | effect on kinase activity (in words) ([1]; 10 μM compound) | SMILES | also measured
1 | weakly activated CDK2 activity | Cc1ccc(Nc2nc(N)nc(N)c2N=O)cc1 [NSC49876] | 
2 | weakly activated CDK2 activity | CCc1c(N)nc(N)nc1Nc1ccc(Cl)c(Cl)c1 [NSC50590] | 
3 | weakly activated CDK2 activity | Cc1cc(Br)ccc1Nc1nc(N)nc(N)c1N=O [NSC66578] | 
4 | weakly activated CDK2 activity | N#Cc1c(Nc2ccc(Br)cc2)[nH]c(=O)[nH]c1=O [NSC73380] | 
5 | weakly activated CDK2 activity | NC(=O)c1c(Nc2ccc(Br)cc2)[nH]c(=O)[nH]c1=O [NSC73381] | 
6 |  | N#Cc1c(N)nc(N)nc1Nc1ccc(Br)cc1 [compound 1] | effect on kinase activity (in words) ([1]; 1 μM compound): no significant effect; kinase activity reduced to ([1]; 10 μM compound): 58%; IC50 [2]: 6.5 µM

Row | SMILES | effect on kinase activity (in words) ([1]; 10 μM compound) | also measured
7 | NC(=S)c1cn(C2OC(CO)C(O)C2O)c2ncnc(N)c12 (centres unmarked) [compound 2] | did not further reduce the kinase activity | kinase activity reduced to ([1]; 1 μM compound): 43%; IC50 [2]: 0.0076 µM
